Tests used:
[1] = tested on: human antibody responses to the native GPI toxin; assay: Competition ELISA, synthetic glycan vs GPI; assay type: binding; conditions: competitor in molar excess
[2] = IgG response of mice immunized with synthetic GPI glycan conjugate; assay type: in vivo; conditions: rodents
Protocol: All experiments were in accordance with local Animal Ethics Committee regulations. Young adult C57BL6 mice from Jackson Laboratories were pre-bled and inoculated with 6.5 μg KLH-glycan (0.176 μg glycan, n=16) or KLH-cysteine (sham-immunized, n=24) emulsified in Freund's Complete Adjuvant, and boosted with equal amounts of immunogen in Incomplete Freund's Adjuvant at 2 weekly intervals. After two boosts they were rested and injected i.p with 1×10^6 P. berghei ANKA-infected erythrocytes. Naïve mice (n=12) served as unimmunized controls. Parasitemias were assessed from Giemsa-stained thin films. Mortality was checked twice daily. Mice were judged as developing cerebral malaria if displaying neurological signs such as loss of reflex or ataxia, and dying between days 5 to 12 post-infection with relatively low parasitemia levels (below 15%). Differences in survival curves of P. berghei infected mice across this time-period were assessed by Cox-Mantel logrank transformation on Kaplan-Meier plots. Deaths from day 14 onwards with high parasitaemia (>60%) and low rates of cerebral vascular occlusion were ascribed to hyperparasitaema/haemolysis, and all animals failing to develop cerebral malaria eventually succumbed to this syndrome.
The synthetic malarial GPI glycan was immunogenic in rodents. […] No reactivity to GPI glycan was detected in pre-immune sera or in animals receiving sham-conjugated KLH. […]

[3] = tested on: anti-Glycan antibodies in human serum; assay: ELISA of human serum against synthetic glycan antigen; assay type: binding; conditions: serum of a malaria-exposed Papua New Guinean donor; BSA-conjugated glycan
[4] = assay type: in vivo, C3H/HeJ and C57B16 mice; conditions: primed with 20 mg D-galactosamine, agent after 1 hour
Protocol: In addition a standard murine model of TNF-driven lethality was used to determine whether GPI mediates parasite-induced acute toxic shock. This model manifests disseminated intravascular coagulation, peripheral vascular failure and shock, and thus has clinical features in common with the human “algid malaria” syndrome. LPS-non-responsive C3H/HeJ and C57B16 mice were primed with 20 mg D-galactosamine followed after 1 hour by purified GPI, PE or PBS alone.

[5] = Competition / PI-specific ELISA, epitope mapping of anti-GPI antibodies; assay type: binding; conditions: sera of mice immunized with free GPI
Protocol: Coupling of the purified GPI glycan to proteins was undertaken as above. To measure anti-lipid reactivities, we utilized commercially available phosphatidylinositol from Sigma with identical composition to the malarial GPI, namely dipalmitoyl-PI. 2 mg PI was coupled to defatted BSA according to published protocols (Bate, C. A. W., Taverne, J., Kwiatkowski, D., and Playfair, J. H. L. (1993) Immunology 79:138-145).
From a 1/32 dilution, sera or mAbs were titrated two-fold in 1% BSA in PBS, 0.05% Tween-20, and pre-incubated for 4 hours at room temperature with a molar excess of competitior (20 μg/ml PI, or phosphatidylserine (PS), or diluent alone). Antigen (BSA-PI or BSA alone) at 20 μg/ml in phosphate binding buffer was incubated overnight in 50 μl volumes in flat-bottomed Immunlon 96-well plates, followed by extensive washing with buffer. The plates were blocked with 1% BSA in PBS for several hours. 50 μl aliquots of titrated antibody with or without competitor were incubated in triplicate for 2 hours at room temperature, followed by extensive washing with 1% BSA 0.05% Tween-20 in PBS. An aliquot of affinity purified, biotin-labelled isotype specific goat anti-mouse second antibody was incubated as above, followed by further washing and the addition of streptavidin-alkaline phosphatase. […] Background binding to BSA-coated plates was determined in parallel. […]

[6] = tested on: P. berghei ANKA; assay: P. berghei ANKA cerebral malaria challenge of immunized mice; assay type: in vivo, C57Bl/6 mice
Text: Mice were immunized by three successive boosts of free intact malarial GPI emulsified in Incomplete Freund's Adjuvant spaced two weeks apart. Control mice received an equal amount of IFA alone. After immunization, sera were bled and the titres of anti-GPI antibodies determined by ELISA. All animals immunized with GPI developed broadly similar levels of anti-GPI antibodies (range 1/1024-1/4096) among individual animals. […] Two weeks after the final boost mice were challenged with P. berghei ANKA. Parasitaemia, the development of neurological complications, and mortality were recorded daily. No difference in parasitaemia was observed. In the control group, 100% of animal manifested between day 5 and 9 an aggressive cerebral syndrome with neurological signs proceeding to rapid death with 12 hours. […]
The P. berghei ANKA murine cerebral malaria model has many features in common with the human cerebral malaria syndrome. […] Parasitaemia, the development of neurological complications, and mortality were recorded daily. […]

[7] = ELISA titres of anti-GPI antibodies in sera of immunized mice; assay type: in vivo; conditions: mice immunized with free GPI in IFA
Protocol: Antigen (GPI-OVA, Glycan-OVA, BSA-PI, OVA or BSA alone) at 20 μg/ml in phosphate binding buffer was incubated overnight in 50 μl volumes in flat-bottomed Immunlon 96-well plates, followed by extensive washing with buffer. The plates were blocked with 1% BSA, 1% OVA in PBS for several hours. From a 1/32 dilution, sera were titrated two-fold in 1% BSA, 1% OVA in PBS, and 50 μl aliquots incubated in triplicate for 2 hours at room temperature, followed by extensive washing with 1% BSA, 1% OVA 0.05% Tween-20 in PBS. An aliquot of affinity purified, biotin-labelled isotype specific goat anti-mouse second antibody was incubated as above, followed by further washing and the addition of streptavidin-alkaline phosphatase. After 30 minutes the plates were washed again and colourimetric development initiated by the addition of p-Nitrophenylphosphate in diethanolamine buffer. Background binding to BSA/OVA-coated plates was determined in parallel. […]
Mice were immunized by three successive boosts of free intact malarial GPI emulsified in Incomplete Freund's Adjuvant spaced two weeks apart. […] After immunization, sera were bled and the titres of anti-GPI antibodies determined by ELISA. […] Parasitaemia, the development of neurological complications, and mortality were recorded daily. […]

With “NH2—CH2—CH2—PO4-(Manα1-2)6Manα1-2Manα1-6Manα1-4GlcNH2α1-6myo-Insositol-1,2 cyclic phosphate [synthetic GPI glycan]” the “competition of human antibody responses to native GPI” value [1] was “compete out the majority of human antibody responses to the native GPI toxin”, the immunogenicity [2] was “immunogenic” and the “detection of antibodies in human serum” value [3] was “able specifically to detect anti-Glycan antibodies in human serum”.

In the case of “NH—CH2—CH2—PO4-(Manα1-2)-6Manα1-2Manα1-6Manα1-4GlcN-H2α1-6(myristoyl)-myo-Inositol-1-PO4-dipalmitoylglycerol [free GPI]”, the “recipients with lethal shock” value [4] was 100%, the “epitope specificity of the antibody response” value [5] was “directed predominantly towards the lipidic (phosphatidylinositol, PI) domain of the molecule” and the parasitaemia ([6]; after P. berghei ANKA challenge two weeks after final boost, vs control groups) was “No difference”. The rate of deaths ([6]; free GPI in IFA vs IFA alone, P. berghei ANKA challenge) was “noticeable faster rate” and the “isotype of the anti-GPI response” value [7] was “predominantly IgM”.

— patent publication US8501183B2, “Immunogenic compositions and diagnostic and therapeutic uses thereof” (The Walter and Eliza Hall Institute of Medical Research, priority 2002, dated 2013)
